Assay results published in patent US20070054868A1, “Synergistic polyphenol compounds, compositions thereof, and uses thereof” (The Trustees of Columbia University in the City of New York, priority 2005, published 2007).

Columns and labels:
SW837 = experiment: Growth inhibition IC50 against colorectal cell lines; format: cell-based, human
From the text: (§1) Cell lines and cell culture. The Caco2, HCT116, HT29, SW480, and SW837 human colorectal cancer cell lines and the FHC normal human fetal colon cell line were obtained from American Type Culture Collection (Manassas, Va.). All cell lines were maintained in DF10 medium containing DMEM (Invitrogen, San Diego, Calif.) supplemented with 10% fetal bovine serum (Invitrogen). The FHC cell line was originally established from the colon of a human fetus at 13 weeks of gestation and has an epithelial morphology. Cells were cultured in an incubator with humidified air at 37° C. with 5% CO2. As an untreated solvent control, cells were treated with DMSO (Sigma Chemical Co., St. Louis, Mo.) at a final concentration of <0.1%. […] Cells to be tested against were plated onto 96-well plates (3×10^3 cells/well) and twenty-four hours later, the cells were treated with an illustrative Synergistic Polyphenol Composition, or one or more illustrative Synergistic Polyphenol Compounds. Neither the medium nor the test compounds were changed during this time period. The assay was done in triplicate. […] The medium and test compounds were not changed during this time period. As a control, the cells were treated with 0.1% DMSO. […] The numbers of cells in replica plates were then determined using a Coulter Counter (Beckman Coulter Co., Fullerton, Calif.) as described in Shimizu et al., Clin. Cancer Res. 2004: 10:1130-40.

TGF-β2 mRNA = experiment: Semiquantitative RT-PCR analysis in SW837 cells; format: cell-based, human; details: 20 μg/mL, at 3 hours
Method: (§2) RNA extraction and semiquantitative RT-PCR analysis were performed as described above in Example 7. Total RNA was isolated from SW837 human colon cancer cells using the Trizol reagent (Invitrogen) according to the manufacturer's instructions. cDNA was amplified from 1 μg of total RNA using Superscript one-step RT-PCR with the platinum Taq system (Invitrogen). Actin specific primer sets are described in Suzui, et al., Cancer Res., 62:3997-4006 (2002). […] Each amplification cycle consisted of 0.5 minutes at 94° C. for denaturation, 0.5 minutes at 55° C. for primer annealing, and 1 minute at 72° C. for extension. After PCR amplification, the fragments were analyzed by agarose gel electrophoresis and stained with ethidium bromide. The intensities of bands were quantified with NIH Image software version 1.62.

MMP-9 mRNA = experiment: Semiquantitative RT-PCR analysis in SW837 cells; format: cell-based, human; details: 20 μg/mL, at 12 hours, additional decrease at 24 to 48 hours
Method: as §2

IGFBP-3 mRNA = experiment: Semiquantitative RT-PCR analysis in SW837 cells; format: cell-based, human; details: 20 μg/mL, at 3 to 12 hours, maximum at 6 hours
Method: as §2

MMP-7 mRNA = experiment: Semiquantitative RT-PCR analysis in SW837 cells; format: cell-based, human; details: 20 μg/mL, at 12 hours, additional decrease at 24 to 48 hours
Method: as §2

IGF-1 mRNA = experiment: Semiquantitative RT-PCR analysis in SW837 cells; format: cell-based, human; details: 20 μg/mL, at 12 hours, additional decline at 24 and 48 hours
Method: as §2

[1] = system: SW837 human colon cancer cells; experiment: DNA fragmentation assay (Cell Death Detection ELISA), apoptosis; format: cell-based
Method: SW837 human colon cancer cells (5.0×10^5 cells/6-cm diameter dish) were treated with EGCG (1.0 or 20 μg/mL) for 48 or 96 hours, and samples were then prepared. Control cells were treated only with DMSO. The extent of DNA fragmentation at time 0 hours was set to 1 and increases expressed as fold activation.

HT29 cells = experiment: Filipin staining of plasma membrane cholesterol; format: cell-based, human
Method: (§3) These effects were detected with as little as […] of EGCG, and within 5 minutes. Phosphorylation of EGFR, ERK1, ERK2, and AKT were suppressed in cells treated with methyl-β-cyclodextrin, which depletes plasma membrane cholesterol. […] In addition, the inhibitory effect of EGCG on phosphorylation of EGFR was not blocked by the addition of cholesterol on the growth medium. These findings provide evidence that EGCG can alter membrane domain organization in colon cancer cells ant that this is not due to cholesterol depletion. It was noted that pre-treatment of the cells with EGCG or Poly E inhibited the binding of Alexa 488-labeled EGF to the cell surface receptor EGFR.

EGFR = biological target: T1, EGFR (Homo sapiens, UniProt P00533); experiment: Binding of Alexa 488-labeled EGF to the cell surface receptor; details: HT29 cells pre-treated with test substance
T1 construct: endogenous in cells; host or cells: HT29 colon cancer cells
Method: as §3

IGFBP-3 protein = experiment: Western blot analysis for IGF in SW837 cells; format: cell-based, human
From the text: (§4) Total cellular protein was extracted and equivalent amounts of protein were examined by western blot analysis, as described above in Example 6. Cell lysates were separated by SDS-PAGE using 7.5 to 15% polyacrylamide gels and transferred onto Immobilon-P transfer membranes (Millipore Co., Bedford, Mass.). The primary antibodies for IGF-1R[…](#3022) and p-IGF-1R (#3021) were purchased from Cell Signaling Technology (Beverly, Mass.). The primary antibodies for IGF-1R[…](sc-713) and IGFBP-3 (sc-6003) were purchased from Santa Cruz Biotechnology (Santa Cruz, Calif.). The primary antibodies for IGF-1 (clone Sm1.2) and actin (A2066) were purchased from Upstate Cell Signaling Solutions (Charlottesville, Va.) and Sigma Chemical Co. (St Louis, Mo.), respectively. An antibody to actin was used as a loading control. Anti-mouse IgG (Amersham Pharmacia Biosciences, Piscataway, N.J.), anti-rabbit IgG (Amersham Pharmacia Biosciences), or anti-goat IgG (Santa Cruz Biotechnology) antibodies were used as the secondary antibodies. Each membrane was developed using an ECL-enhanced chemiluminescence system (Amersham Biosciences).

IGF-1 protein = experiment: Western blot analysis for IGF in SW837 cells; format: cell-based, human
From the text: as §4

p-IGF-1R = experiment: Western blot analysis for IGF in SW837 cells; format: cell-based, human; details: 20 μg/mL, within 6 hours
From the text: as §4

FHC = experiment: Growth inhibition IC50 against normal fetal colon cell line; format: cell-based, human; details: conclusion from Table 4
From the text: as §1

(−)-epigallocatechin gallate
IC50 (SW837): 19.6 µg/mL
IC50 concentration determined by MTT assays (SW837): 20 µg/mL
level of TGF-β2 mRNA (TGF-β2 mRNA): transiently increased
cellular level of MMP-9 mRNA (MMP-9 mRNA): marked decrease
levels of IGFBP-3 mRNA (IGFBP-3 mRNA): increase
cellular level of MMP-7 mRNA (MMP-7 mRNA): marked decrease
level of IGF-1 mRNA (IGF-1 mRNA): decrease
apoptosis (DNA fragmentation) ([1]; 1.0 μg/mL, 96 hours): significant increase
apoptosis (DNA fragmentation) ([1]; 20 μg/mL, 48 hours): induction of apoptosis
effects on plasma membrane properties versus cholesterol depletion (filipin staining) (HT29 cells): not associated with cholesterol depletion
binding of Alexa 488-labeled EGF to the cell surface receptor EGFR (EGFR): inhibited
level of the IGFBP-3 protein (IGFBP-3 protein; 1.0 μg/mL, 96 hours): increase
level of the IGFBP-3 protein (IGFBP-3 protein; 20 μg/mL, at 6 hours, persisted for at least 48 hours): marked increase
levels of the IGF-1 protein (IGF-1 protein; 1.0 μg/mL, 96 hours): decrease
levels of the IGF-1 protein (IGF-1 protein; 20 μg/mL, at 12 hours): moderate decrease
levels of the IGF-1 protein (IGF-1 protein; 20 μg/mL, at 24 hours): marked decrease
levels of the p-IGF-1R protein (p-IGF-1R): marked decrease
growth inhibition of colorectal cancer cells relative to FHC normal cells (FHC): preferentially inhibit
